pIC50, pKi: −log10 of the molar value.
Experiments:
Format in all cases: ADME
[1] = target: T1, Cytochrome P450 2A6 (Homo sapiens, UniProt P11509); test: Inhibition of CYP2A6 (unknown origin)
T1 sequence (P11509 whole entry): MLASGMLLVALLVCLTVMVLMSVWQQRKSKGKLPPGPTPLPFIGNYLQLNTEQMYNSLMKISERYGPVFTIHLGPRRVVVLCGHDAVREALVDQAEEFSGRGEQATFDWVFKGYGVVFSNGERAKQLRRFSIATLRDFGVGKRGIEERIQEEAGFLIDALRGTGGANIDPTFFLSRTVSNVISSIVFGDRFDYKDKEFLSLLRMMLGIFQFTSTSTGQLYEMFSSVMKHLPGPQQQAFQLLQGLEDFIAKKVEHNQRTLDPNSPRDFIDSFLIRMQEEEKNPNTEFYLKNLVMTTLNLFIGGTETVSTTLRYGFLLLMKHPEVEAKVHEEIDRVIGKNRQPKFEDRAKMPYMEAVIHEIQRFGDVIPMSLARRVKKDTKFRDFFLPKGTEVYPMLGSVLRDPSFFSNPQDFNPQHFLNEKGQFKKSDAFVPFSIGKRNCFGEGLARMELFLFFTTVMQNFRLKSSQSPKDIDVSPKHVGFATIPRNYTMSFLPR

[2] = target: T1, Cytochrome P450 2A6; test: Competitive inhibition of CYP2A6 (unknown origin)
[3] = target: T2, Cytochrome P450 3A4 (Homo sapiens, UniProt P08684); test: Non competitive inhibition of CYP3A4 (unknown origin)
T2 sequence (P08684 whole entry): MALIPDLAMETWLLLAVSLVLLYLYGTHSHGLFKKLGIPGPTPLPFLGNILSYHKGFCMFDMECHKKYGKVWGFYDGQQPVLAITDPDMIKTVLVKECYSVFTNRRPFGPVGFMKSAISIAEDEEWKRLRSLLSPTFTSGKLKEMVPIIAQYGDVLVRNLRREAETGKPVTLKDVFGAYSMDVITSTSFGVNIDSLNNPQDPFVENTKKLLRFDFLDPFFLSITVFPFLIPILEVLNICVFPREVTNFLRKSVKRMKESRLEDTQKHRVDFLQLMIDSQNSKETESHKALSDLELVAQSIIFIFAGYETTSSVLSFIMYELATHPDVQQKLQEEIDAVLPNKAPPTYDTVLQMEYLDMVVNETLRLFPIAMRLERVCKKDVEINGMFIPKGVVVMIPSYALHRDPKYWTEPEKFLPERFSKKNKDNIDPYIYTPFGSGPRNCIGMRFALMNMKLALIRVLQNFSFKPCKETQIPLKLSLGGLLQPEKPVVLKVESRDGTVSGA

[4] = tested on: CYP3A4 / CYP2A6; test: Selectivity ratio of Ki for non-competitive inhibition of CYP3A4 (unknown origin) to ratio of Ki for competitive inhibition of CYP2A6 (unknown origin); conditions: human; read-out: Ratio Ki
[5] = target: T2, Cytochrome P450 3A4; test: Mixed type inhibition of CYP3A4 (unknown origin)
[6] = tested on: CYP3A4 / CYP2A6; test: Selectivity ratio of Ki for mixed type inhibition of CYP3A4 (unknown origin) to ratio of Ki for competitive inhibition of CYP2A6 (unknown origin); conditions: human; read-out: Ratio Ki
[7] = target: T2, Cytochrome P450 3A4; test: Inhibition of CYP3A4 (unknown origin)
[8] = target: T1, Cytochrome P450 2A6; test: Mixed type inhibition of CYP2A6 (unknown origin)
[9] = tested on: CYP3A4 / CYP2A6; test: Selectivity ratio of Ki for non-competitive inhibition of CYP3A4 (unknown origin) to ratio of Ki for mixed type inhibition of CYP2A6 (unknown origin); conditions: human; read-out: Ratio Ki
[10] = target: T3, CYP2A6 (Homo sapiens, UniProt P11509); test: Inhibition of CYP2A6 (unknown origin) assessed as residual activity preincubated for 10 mins
T3 sequence (P11509 whole entry): T1 sequence (P11509 whole entry)

| pIC50 [1] | pKi [2] | pKi [3] | pKi [5] | pIC50 [7] | pKi [8] | activity [10] | SMILES | selectivity ratio [4] | selectivity ratio [6] | selectivity ratio [9] |
| --- | --- | --- | --- | --- | --- | --- | --- | --- | --- | --- |
| 6.77 | 7.10 | 3.37 |  |  |  |  | CCOc1cccc2oc(=O)ccc12 | 5300 |  |  |
| 7.30 | 7.52 |  | 4.55 |  |  |  | C=CCOc1cccc2oc(=O)ccc12 |  | 937 |  |
| 5.97 | 6.27 |  |  | < 3.60 |  |  | CCCOc1cccc2oc(=O)ccc12 |  |  |  |
| 6.70 | 6.60 |  |  | < 3.60 |  |  | COc1ccc2oc(=O)ccc2c1 |  |  |  |
| 6.89 |  | 3.35 |  |  | 7.30 |  | COc1cccc2oc(=O)ccc12 |  |  | 8970 |
| 5.13 | 5.40 |  |  | < 3.60 |  | 62% | COc1cccc2ccc(=O)oc12 |  |  |  |
| 7.40 | 8.00 |  | 4.33 |  |  | 57% | C#CCOc1cccc2oc(=O)ccc12 |  | 4660 |  |
|  |  |  |  |  |  | 52% | COc1c2occc2cc2ccc(=O)oc12 [METHOXSALEN] |  |  |  |

Source: ChEMBL document CHEMBL5252607, “Synthesis and biological evaluation of coumarin derivatives as selective CYP2A6 inhibitors” (Bioorg Med Chem Lett, 2023)
